Holding throughout (assay): growth of human tumour cells (NCI), 48 h
For assay [1], the system named is A549 NSCLC.
Assay [2] has as its system COLO 205 colon.
For assay [3], the system named is EKVX NSCLC.
The test system of assay [4] is HCT-15 colon.
Assay [5] deals with HL-60(TB) leukemia.
Assay [6] has as its system MALME-3M melanoma.
For assay [7], the system named is SF-268 CNS.
Assay [8] deals with SK-MEL-5 melanoma.
The test system of assay [9] is T-47D breast.

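Grown in 96-well plates, cells were treated for 48 hours with each compound at five concentrations. Insufficient inhibition: endpoint recorded as highest concentration tested. GI50 is the concentration that inhibits growth by half. TGI denotes the concentration required for complete inhibition of growth.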

For `CCOCC(=O)N[C@H]1CCc2cc(OC)c(OC)c(OC)c2-c2ccc(OC)c(=O)cc21`, the TGI was greater than 100 µM in [1]; 0.0205 µM in assay [2]; greater than 100 µM in assay [3]; 19.1 µM in assay [4]; 0.101 µM in assay [5]; greater than 100 µM in [6]. For the same compound, the TGI is greater than 100 µM in [7], 0.36 µM in [8] and greater than 100 µM in assay [9].
With `Cn1c2ccccc2c2ccc3c(c21)C(=O)c1ccccc1C3=O`, the TGI in [1] was greater than 100 µM; in assay [2], 82 µM; in assay [3] it was greater than 100 µM; in assay [4], 50.2 µM; in assay [5], 10.8 µM; in assay [6], 24.5 µM. In addition, the TGI stood at 66.6 µM in assay [7], 30.2 µM in [8] and 49.8 µM in [9].
Regarding `O=C1c2ccccc2C(=O)N1CCc1ncc[nH]1`, the TGI in assay [1], in assay [2], in assay [3], in assay [4], in [7] and in assay [8] was greater than 100 µM throughout. In assay [9], this compound had a TGI greater than 100 µM.
For the compound `Cc1ccc(C(=O)N(CCCN)C(c2oc3cc(Cl)ccc3c(=O)c2Cc2ccccc2)C(C)C)cc1` (centres undefined), the GI50 in [1] was less than 0.01 µM; in assay [2], less than 0.01 µM; in [4], less than 0.01 µM; in [5] it was less than 0.01 µM; in assay [6], 1.3 µM; in [7] it was less than 0.01 µM. The GI50 in [8] and in assay [9] was less than 0.01 µM in each case. In addition, the TGI in assay [1] was 1.54 µM; in assay [2] it was 0.595 µM; in assay [4] it was 1.57 µM; in assay [5], 0.126 µM; in assay [6] it was 3.09 µM; in [7], 1.69 µM. Moreover, the values for the TGI in assay [8] and in [9] were 1.68 µM and 2.02 µM, respectively.
As to `O=C(O)CCNC1CCCCC1`, the GI50 in assay [1], in assay [2], in assay [3], in assay [4], in assay [5] and in assay [6] was greater than 100 µM in each case. For the same compound, the GI50 in [7], in [8] and in assay [9] was greater than 100 µM each time. The TGI in assay [1], in assay [2], in assay [3], in assay [4], in assay [5] and in assay [6] was greater than 100 µM in each case. In addition, the TGI in assay [7], in assay [8] and in assay [9] was greater than 100 µM throughout.
As to `O=C1CCC(N2C(=O)c3ccccc3C2=O)C(=O)N1CO` (centres undefined), the GI50 is greater than 100 µM in [1]; greater than 100 µM in assay [2]; greater than 100 µM in assay [3]; 52.2 µM in assay [4]; 32.2 µM in assay [5]; greater than 100 µM in [6]. Moreover, the GI50 in [7] is greater than 100 µM; in [9] it was 78 µM. In addition, the TGI was greater than 100 µM in [1]; greater than 100 µM in [2]; greater than 100 µM in assay [3]; greater than 100 µM in assay [4]; 89.5 µM in assay [5]; greater than 100 µM in assay [6]. In addition, the TGI in assay [7] and in assay [9] was greater than 100 µM in each case.
For the compound `CS(=O)(=O)c1ccc(-n2nc(C(F)(F)F)cc2OC2CCCC2)cc1`, the GI50 in assay [1] was 25.7 µM; in assay [2], 29 µM; in assay [3], 82.5 µM; in assay [4], 30.6 µM; in assay [5], 24 µM; in assay [7], 36.1 µM. Also, the GI50 was 19.5 µM in [8] and 33 µM in [9]. Also, the TGI in [1] is 79.4 µM; in [2], 81.7 µM; in assay [3], greater than 100 µM; in assay [4], 80.1 µM; in assay [5], 59.3 µM; in assay [7] it was greater than 100 µM. The TGI in assay [8] was 36.2 µM; in assay [9], greater than 100 µM.
In the case of `Cc1ccc(-c2nc3nc(-c4ccccc4)nc(N4CCCNCC4)c3o2)cc1`, the GI50 in assay [1] was 1.65 µM; in [2], 1.96 µM; in assay [3], 1.75 µM; in assay [4] it was 1.58 µM; in assay [5] it was 0.726 µM; in assay [6], 1.85 µM. Also, the GI50 is 1.74 µM in assay [7] and 1.73 µM in [9]. For the same compound, the TGI in assay [1] is 3.06 µM; in assay [2] it was 3.66 µM; in [3] it was 3.29 µM; in [4], 3.23 µM; in assay [5], 2.49 µM; in assay [6] it was 3.38 µM. The TGI in assay [7] is 3.63 µM; in assay [9] it was 3.5 µM.
Take `CCCCCCCC[C@@H](O)CC(=O)N[C@@H](CC(N)=O)C(=O)N[C@@H](CCC(N)=O)C(=O)N[C@@H](CC(=O)c1cc(C)cc(O)c1C(=O)c1c(O)cccc1O)CC(C)C`: the GI50 in assay [1] was 5.31 µM; in assay [2], 0.399 µM; in assay [3], 3.35 µM; in assay [4], 2.25 µM; in assay [5], 1.89 µM; in [6] it was 0.667 µM. Besides, the GI50 in assay [7] was 0.374 µM; in assay [9] it was 1.15 µM. For the same compound, the TGI in assay [1] was greater than 100 µM; in assay [2] it was 12 µM; in [3], 75.5 µM; in assay [4] it was 23.8 µM; in [5], greater than 100 µM; in [6], greater than 100 µM. The TGI was 2.55 µM in assay [7] and 4.51 µM in assay [9].
For `O=c1cc(-c2ccccc2)oc2cc(OC/C(=N/O)c3ccccc3)ccc12`, the GI50 is 31.7 µM in [1]; greater than 50 µM in assay [2]; 24.8 µM in [3]; 22.2 µM in assay [4]; greater than 50 µM in assay [5]; 11.5 µM in assay [7]. The GI50 in assay [8] was 20.7 µM; in [9], greater than 50 µM. Further, the TGI in assay [1] was greater than 50 µM; in [2] it was greater than 50 µM; in assay [3], greater than 50 µM; in [4], greater than 50 µM; in assay [5], greater than 50 µM; in [7], 31 µM. Also, the TGI in assay [8] and in [9] was greater than 50 µM throughout.

Values taken from PubChem BioAssay (NCI).
